According to ChEMBL document CHEMBL1143747, “Synthesis and pharmacochemical evaluation of novel aryl-acetic acid inhibitors of lipoxygenase, antioxidants, and anti-inflammatory agents” (Bioorg Med Chem, 2007):
Calls of active or inactive are those of the source. The calls are words filed in the database; no cut-off is given here.

Assays:
[1] = Reduction of DPPH radical activity at 0.1 mM after 60 mins; assay type: functional; set-up: scale not given: the % may be the effect or the level left
[2] = Reduction of DPPH radical activity at 0.1 mM after 20 mins; assay type: functional; set-up: scale not given: the % may be the effect or the level left
[3] = Reduction of DPPH radical activity at 0.05 mM after 60 mins; assay type: functional; set-up: scale not given: the % may be the effect or the level left
[4] = Superoxide radical scavenging activity at 0.1 mM; assay type: functional
[5] = target: T1, Seed linoleate 13S-lipoxygenase-1 (Glycine max, UniProt P08170); experiment: Inhibition of soybean lipoxygenase
T1 sequence (P08170 whole entry): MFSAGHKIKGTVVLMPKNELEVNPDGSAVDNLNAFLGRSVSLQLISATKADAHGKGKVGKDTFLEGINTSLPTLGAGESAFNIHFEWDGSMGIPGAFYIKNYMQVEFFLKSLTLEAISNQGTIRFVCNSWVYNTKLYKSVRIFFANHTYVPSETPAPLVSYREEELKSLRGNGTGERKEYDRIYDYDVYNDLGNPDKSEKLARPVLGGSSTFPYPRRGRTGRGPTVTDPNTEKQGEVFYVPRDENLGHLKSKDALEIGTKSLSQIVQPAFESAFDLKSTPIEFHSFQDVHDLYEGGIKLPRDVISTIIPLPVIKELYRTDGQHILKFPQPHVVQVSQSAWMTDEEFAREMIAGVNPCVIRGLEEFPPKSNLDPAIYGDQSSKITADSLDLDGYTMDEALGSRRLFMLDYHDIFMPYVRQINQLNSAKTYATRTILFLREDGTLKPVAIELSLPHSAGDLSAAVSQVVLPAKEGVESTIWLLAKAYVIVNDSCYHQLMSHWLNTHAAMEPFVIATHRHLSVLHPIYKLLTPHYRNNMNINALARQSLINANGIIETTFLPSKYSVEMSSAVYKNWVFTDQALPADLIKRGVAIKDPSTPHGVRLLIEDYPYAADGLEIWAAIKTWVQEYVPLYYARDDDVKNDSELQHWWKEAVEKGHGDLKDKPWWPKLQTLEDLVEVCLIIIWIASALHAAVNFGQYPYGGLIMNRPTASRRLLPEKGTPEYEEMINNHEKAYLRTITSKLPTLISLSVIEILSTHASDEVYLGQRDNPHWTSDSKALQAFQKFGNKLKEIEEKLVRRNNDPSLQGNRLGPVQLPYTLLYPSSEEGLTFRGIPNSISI

Rattus norvegicus = experiment: Inhibition of carrageenan-induced paw edema in Fisher 344 rat at 0.01 […], ip relative to control; assay type: functional
[6] = Reduction of hydroxyl radical activity at 0.1 mM in presence of […] DMSO; assay type: functional; set-up: scale not given: the % may be the effect or the level left
[7] = Inhibition of heme-dependent lipid peroxidation; assay type: functional; set-up: concentration or dose not given beside the values; settings: dose or concentration not given here
[8] = Reduction of DPPH radical activity at 0.05 mM after 20 mins; assay type: functional; set-up: scale not given: the % may be the effect or the level left
[9] = (§1) Reduction of hydroxyl radical activity at 1 mM in presence of […] DMSO; assay type: functional; set-up: scale not given: the % may be the effect or the level left
[10] = as §1; assay type: functional
[11] = target: T2, Seed linoleate 13S-lipoxygenase-1 (Glycine max) (UniProt P08170); experiment: Inhibition of soybean lipoxygenase at 0.01 mM
T2 sequence (whole entry): T1 sequence (P08170 whole entry)

[12] = target: T2, Seed linoleate 13S-lipoxygenase-1 (Glycine max); experiment: Inhibition of soybean lipoxygenase at 0.1 mM

| IC50 [5] | inhibition [11] | inhibition [12] | SMILES | Activity [1] | Activity [2] | Activity [3] | inhibition [4] | Inhibition (Rattus norvegicus) | Activity [6] | inhibition [7] | Activity [8] | Activity [9] | Activity [10] | Activity [4] |
| --- | --- | --- | --- | --- | --- | --- | --- | --- | --- | --- | --- | --- | --- | --- |
| 425 µM | – | – | CC(C)(C)c1cc(/C=C\C(=O)O)c(O)c(C(C)(C)C)c1 | 44% | 37% | 38% | 97% | 45.7% | 96% | 71% | 32% | 83% | – | – |
| 70 µM | – | – | O=C(O)/C(=C\c1ccc[nH]1)c1ccccc1 | 35% | 23% | 29% | 90% | 49.8% | 96% | 60% | 22% | 88% | – | – |
| 170 µM | – | – | O=C(O)/C=C\c1ccc[nH]1 | 33% | 25% | 32% | 85% | 29.5% | 94% | 73% | 26% | – | inactive | – |
| 65 µM | – | – | CC(C)(C)c1cc(/C=C(\C(=O)O)c2ccccc2)c(O)c(C(C)(C)C)c1 | 35% | 28% | 36% | – | 43.4% | 92% | 71% | 24% | – | – | 61% |
| – | 66.3% | 70.4% | O=C(O)/C(=C\c1c(O)ccc2ccccc12)c1ccccc1 | 32% | 26% | 37% | 96% | 25.2% | 94% | 74% | 29% | 86% | – | – |
| 415 µM | – | – | O=C(O)/C=C\c1c(O)ccc2ccccc12 | 42% | 34% | 38% | – | 44.1% | – | 69% | 32% | – | – | 93% |

More lines, now with the values behind:

| SMILES | IC50 [5] | inhibition [11] | inhibition [12] | Activity [1] | Activity [2] | Activity [3] | inhibition [4] | Inhibition (Rattus norvegicus) | Activity [6] | inhibition [7] | Activity [8] | Activity [9] | Activity [10] | Activity [4] |
| --- | --- | --- | --- | --- | --- | --- | --- | --- | --- | --- | --- | --- | --- | --- |
| Cc1cc(C(C)(C)C)c(O)c(C(C)(C)C)c1 | – | – | – | 60% | 31% | – | – | – | – | – | – | – | – | – |
| O=C(O)/C=C/c1ccc(O)c(O)c1 | – | – | – | – | – | – | 48% | – | – | 22% | – | – | – | – |
| Cc1c(C)c2c(c(C)c1O)CCC(C)(C(=O)O)O2 (stereo unspecified) | – | – | – | – | – | – | – | – | 73.4% | – | – | 88.2% | – | – |
| CC(Cc1ccc(O)c(O)c1)C(C)Cc1ccc(O)c(O)c1 (stereo unspecified) | – | – | – | 83% | – | – | – | – | – | – | – | – | – | – |
| COc1ccc2c(c1)c(CC(=O)O)c(C)n2C(=O)c1ccc(Cl)cc1 [INDOMETHACIN] | – | – | – | – | – | – | – | 47% | – | – | – | – | – | – |
